The values that follow come from US20100022604A1, “PROPHYLACTIC OR THERAPEUTIC AGENT FOR ALOPECIA” (TAISHO PHARMACEUTICAL CO., LTD., priority 2006, published 2010).

Structures are written as SMILES.

The test system of this assay is C57BL mice, shaved dorsal area (hair growth). Briefly: Hair growth stimulatory effect measurement test in shaved mouse model. It is filed as in vivo. How it is done: Hair Growth Stimulatory Effect Measurement Test in Shaved Mouse Model
Dorsal hair of each of C57BL mice (female, about 7-week old) was shaved, and 200 μL of each of test compounds (90 mM) dissolved into 99% ethanol was applied to the shaved area once a day for 40 days from the day 3 after the shaving. As the evaluated compounds, the compound of the present invention and the compound (GPI-1511) disclosed in International Publication No. WO98/55090 were used. As a control, a group in which 200 μL of the vehicle was applied was used.
A hair growth state of the shaved area of each of 10 to 12 mice of each group was rated every 2 or 3 days after the start of administration by using the following hair growth score criteria.
(Hair Growth Score Criteria)
2=hair growth in less than 30% of shaved area
3=hair growth in 30% or more and less than 60% of shaved area
4=hair growth in 60% or more and less than 90% of shaved area
5=hair growth in 90% or more of shaved area

On to `COc1ccc(OCc2nc([C@@H]3CCCN3C(=O)C(F)(F)C3(O)CC(C)(C)CC(C)(C)C3)no2)cc1OC` [compound of the present invention, 1-[2-((2S)-2-{5-[(3,4-dimethoxyphenoxy)methyl]-1,2,4-oxadiazol-3-yl}pyrrolidin-1-yl)-1,1-difluoro-2-oxoethyl]-3,3,5,5-tetramethylcyclohexanol], for which, under “18 μmol topical once a day, from day 19 of administration”, the “increase in hair growth score from the day 19 of the administration” value is listed as “remarkable”. Besides, the “hair growth score compared to the group with GPI-1511” value (18 μmol topical once a day, over the whole test period) is “higher than that of the group with GPI-1511 over the whole test period”. For the same molecule, the “hair growth score compared to the vehicle (control) group” value (female, 18 μmol (200 μL of 90 mM in 99% ethanol) applied to the shaved area once a day for 40 days, score 1-5, FIG. 1) is on record as “an increase in hair growth score was exhibited from an early stage”.
